Results on 21 compounds are retold here after US20090028925A1, “Novel Phosphinic Acid-Containing Thyromimetics” (priority 2005, published 2009).

Experiment [1] addresses T1, human thyroid hormone receptors TRα1 (Homo sapiens, UniProt P10827).
T1 construct: made in house; host or cells: Sf9 insect cells (baculovirus)
T1 sequence (P10827 1-410 isoform P10827-2): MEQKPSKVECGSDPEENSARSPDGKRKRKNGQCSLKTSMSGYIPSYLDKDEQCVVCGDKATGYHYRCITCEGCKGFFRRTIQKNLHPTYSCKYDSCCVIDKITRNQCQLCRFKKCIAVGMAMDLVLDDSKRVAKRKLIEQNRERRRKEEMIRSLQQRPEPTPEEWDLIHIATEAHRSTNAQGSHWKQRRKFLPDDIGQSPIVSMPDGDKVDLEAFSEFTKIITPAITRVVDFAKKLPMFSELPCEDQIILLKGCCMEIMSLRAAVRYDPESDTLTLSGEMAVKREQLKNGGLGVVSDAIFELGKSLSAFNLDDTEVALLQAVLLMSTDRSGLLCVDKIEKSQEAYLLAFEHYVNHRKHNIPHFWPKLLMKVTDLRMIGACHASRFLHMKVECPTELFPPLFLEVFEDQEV
T1 sequence (P19793 1-462 partner): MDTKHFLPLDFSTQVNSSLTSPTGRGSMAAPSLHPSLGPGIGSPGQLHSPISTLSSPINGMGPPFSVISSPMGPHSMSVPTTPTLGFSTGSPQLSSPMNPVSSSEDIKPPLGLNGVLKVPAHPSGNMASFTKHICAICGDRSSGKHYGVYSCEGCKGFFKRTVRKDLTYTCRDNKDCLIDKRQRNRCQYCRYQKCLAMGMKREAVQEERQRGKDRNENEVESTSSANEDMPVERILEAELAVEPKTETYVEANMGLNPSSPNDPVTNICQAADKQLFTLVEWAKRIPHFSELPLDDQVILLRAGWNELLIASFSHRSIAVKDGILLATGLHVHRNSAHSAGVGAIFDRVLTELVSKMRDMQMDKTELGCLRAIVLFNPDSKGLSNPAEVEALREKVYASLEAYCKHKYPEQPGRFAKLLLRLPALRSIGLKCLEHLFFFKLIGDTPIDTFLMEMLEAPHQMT
Description: Receptor binding to TRα1 (gel filtration and scintillation proximity assay, labeled T3). The conditions noted are these: read-out: Ki TRα. Here is the method:
(§1) Methods: Baculoviruses expressing TRα1, TRβ1 and RXRα were generated using cDNA and other reagents from Invitrogen (Carlsbad, Calif.). To produce TR/RXR heterodimer proteins, the sf9 insect cells were first grown to a density of 1-5×10^5 cells/mL. […] and RXRα baculovirus stocks were added to the cell culture with a ratio of 1 to 1 (multiplicity of infection=10). The cells were harvested three days after the infection.
(§2) Binding of compounds to either the TRα1 or TRβ1 were also performed by means of scintillation proximity assays (SPA). The SPA assay, a common method used for the quantitation of receptor-ligand equilibria, makes use of special beads coated with a scintillant and a capture molecule, copper, which binds to the histidine-tagged α or β receptor.

Experiment [2] has as its target T2, human thyroid hormone receptors TRβ1 (Homo sapiens, UniProt P10828).
T2 construct: made in house; host or cells: Sf9 insect cells (baculovirus)
T2 sequence (P10828 1-461): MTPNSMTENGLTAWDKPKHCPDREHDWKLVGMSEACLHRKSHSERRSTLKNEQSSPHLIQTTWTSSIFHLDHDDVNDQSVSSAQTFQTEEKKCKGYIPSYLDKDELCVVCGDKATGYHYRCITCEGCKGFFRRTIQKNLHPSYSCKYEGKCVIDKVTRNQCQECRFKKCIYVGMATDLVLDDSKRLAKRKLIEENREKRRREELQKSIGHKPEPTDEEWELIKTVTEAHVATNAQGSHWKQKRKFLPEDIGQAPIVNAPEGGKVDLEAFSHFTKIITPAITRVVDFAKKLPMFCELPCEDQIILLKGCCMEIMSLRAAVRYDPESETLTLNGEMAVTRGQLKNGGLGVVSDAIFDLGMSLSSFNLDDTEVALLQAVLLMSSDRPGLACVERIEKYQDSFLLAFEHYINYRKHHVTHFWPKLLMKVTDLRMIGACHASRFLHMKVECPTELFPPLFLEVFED
T2 sequence (P19793 1-462 partner): T1 sequence (P19793 1-462 partner)
As to the kind of experiment: Receptor binding to TRβ1 (gel filtration and scintillation proximity assay, labeled T3). As to conditions: read-out: Ki TRβ. The procedure:
as §1, §2
A general note: In gel filtration, larger molecules generally elute earlier.

Another experiment relates to plasma cholesterol. As to the kind of experiment: Cholesterol lowering in hypercholesterolemic rats. The experiment is classed as in vivo. The conditions noted are these: Rattus norvegicus, percentage change from pre-dose cholesterol, read-out: % Cholesterol Lowering.
[3] abbreviates: ip, delivered i.p (0.2 mg/kg/d).
[4] abbreviates: po, delivered p.o. (0.2 mg/kg/d).

Where two headings read alike, the source gives them in different places.

Usually Ki stands for the dissociation constant of the complex between target and ligand, obtained from inhibition or displacement. For the compound `O=P(O)(O)Cc1cc(I)c(Oc2ccc(O)c(I)c2)c(I)c1` [Compound 6, 3,5-diiodo-4-(4′-hydroxy-3′-iodophenoxy)benzylphosphonic acid], the Ki was determined as 16 nM in experiment [1] (SPA data) and 26 nM in experiment [2]. The change in vivo at 0.2 mg/kg/day with plasma cholesterol (setting [3]) was -20.5%.

As for `Cc1cc(OCP(=O)(O)O)cc(C)c1Cc1ccc(O)c(-c2ccccc2)c1` [Compound 7-1, [3,5-dimethyl-4-(4′-hydroxy-3′-phenylbenzyl)phenoxy]methylphosphonic acid], the Ki in experiment [1] is 1170 nM; in experiment [2] (SPA data) it was 106 nM. For the same compound, in the experiment with plasma cholesterol (setting [4]), the change in vivo at 0.2 mg/kg/day is -12.2%.

Regarding `CCC(C)c1cc(Cc2c(C)cc(OCP(=O)(O)O)cc2C)ccc1O` (stereo not drawn) [Compound 7-3, [3,5-dimethyl-4-(3′-sec-butyl-4′-hydroxybenzyl)phenoxy]methylphosphonic acid], the inhibition constant Ki turned out to be 31 nM in experiment [1] (SPA data) and 6.6 nM in experiment [2] (SPA data). Besides, the change in vivo at 0.2 mg/kg/day in the experiment on plasma cholesterol (setting [3]) was -45.4%; in the experiment with plasma cholesterol (setting [4]), -36.5%.

For `Cc1cc(OC(F)(F)P(=O)(O)O)cc(C)c1Cc1ccc(O)c(C(C)C)c1` [Compound 7-6, difluoro-[3,5-dimethyl-4-(4′-hydroxy-3′-iso-propylbenzyl)phenoxy]methylphosphonic acid], the figures for the inhibitory constant (Ki) in experiment [1] (SPA data) and in experiment [2] (SPA data) were 98 nM and 7.6 nM, respectively. The change in vivo at 0.2 mg/kg/day in the experiment on plasma cholesterol (setting [3]) is -13.5%.

Turning to `CCc1cc(Cc2c(C)cc(OCP(=O)(O)O)cc2C)ccc1O` [Compound 7-8, [3,5-dimethyl-4-[3′-ethyl-4′-hydroxybenzyl]phenoxy]methylphosphonic acid], the inhibition constant (Ki) is 62 nM in experiment [1] and 9.7 nM in experiment [2]. Moreover, in the experiment on plasma cholesterol (setting [3]), the change in vivo at 0.2 mg/kg/day is -28.6%.

For the compound `CCC(CC)c1cc(Cc2c(C)cc(OCP(=O)(O)O)cc2C)ccc1O` [Compound 7-9, [3,5-dimethyl-4-[3′-(1-ethylpropyl)-4′-hydroxybenzyl]phenoxy]methylphosphonic acid], the Ki turned out to be 110 nM in experiment [1] (SPA data) and 5.4 nM in experiment [2] (SPA data). For the same compound, the change in vivo at 0.2 mg/kg/day in the experiment with plasma cholesterol (setting [3]) was -63.2%; with plasma cholesterol (setting [4]), -38.4%.

As for `Cc1cc(Cc2c(C)cc(OCP(=O)(O)O)cc2C)cc(C(C)C)c1O` [Compound 7-10, [3,5-dimethyl-4-(4′-hydroxy-3′-iso-propyl-5′-methyl benzyl)phenoxy]methylphosphonic Acid], the figures for the Ki in experiment [1] (SPA data) and in experiment [2] (SPA data) were 112 nM and 48 nM, respectively. The change in vivo at 0.2 mg/kg/day in the experiment on plasma cholesterol (setting [3]) is -25.8%.

As for `CC(C)c1cc(Cc2c(Cl)cc(OCP(=O)(O)O)cc2Cl)cc(Br)c1O` [Compound 7-14, [3,5-dichloro-4-(5′-bromo-4′-hydroxy-3′-iso-propylbenzyl)phenoxy]methylphosphonic acid], the Ki came to 429 nM in experiment [1] (SPA data) and 52 nM in experiment [2] (SPA data). In the experiment on plasma cholesterol (setting [3]), the change in vivo at 0.2 mg/kg/day was -32.9%.

As for `CC(C)c1cc(Oc2c(I)cc(OCP(=O)(O)O)cc2I)ccc1O` [Compound 8, [3,5-diiodo-4-(4′-hydroxy-3′-iso-propylphenoxy)phenoxy]methylphosphonic acid], the inhibition constant (Ki) was 3.74 nM in experiment [1] and 0.97 nM in experiment [2]. The results for the change in vivo at 0.2 mg/kg/day with plasma cholesterol (setting [3]) and with plasma cholesterol (setting [4]) were -24.3% and -20.6%, respectively.

`CC(C)c1cc(Oc2c(Br)cc(OCP(=O)(O)O)cc2Br)ccc1O` [Compound 8-1, [3,5-dibromo-4-(3′-iso-propyl-4′-hydroxyphenoxy)phenoxy]methylphosphonic acid]: the inhibitory constant (Ki) was 18.6 nM in experiment [1] and 2.51 nM in experiment [2]. In addition, the change in vivo at 0.2 mg/kg/day in the experiment on plasma cholesterol (setting [4]) is -32.2%.

As to `CC(C)c1cc(Oc2c(Cl)cc(OCP(=O)(O)O)cc2Cl)ccc1O` [Compound 8-2, [3,5-dichloro-4-(3′-iso-propyl-4′-hydroxyphenoxy)phenoxy]methylphosphonic acid], the Ki is 114 nM in experiment [1] (SPA data) and 20 nM in experiment [2] (SPA data). The change in vivo at 0.2 mg/kg/day in the experiment with plasma cholesterol (setting [3]) is -48%.

With `O=P(O)(O)Cc1cc(Cl)c(Oc2ccc(O)c(Cc3ccc(F)cc3)c2)c(Cl)c1` [Compound 11, 3,5-dichloro-4-[3′-(4-fluorobenzyl)-4′-hydroxyphenoxy]benzylphosphonic acid], the values for the Ki in experiment [1] (SPA data) and in experiment [2] (SPA data) were 121 nM and 30.3 nM, respectively. Moreover, the change in vivo at 0.2 mg/kg/day is -36.4% in the experiment with plasma cholesterol (setting [3]) and -5.1% with plasma cholesterol (setting [4]).

Regarding `CC(C)c1cc(Oc2c(Cl)cc(CP(=O)(O)O)cc2Cl)ccc1O` [Compound 19, [3,5-dichloro-4-(4′-hydroxy-3′-iso-propylphenoxy)]benzylphosphonic acid], the inhibition constant Ki is 304 nM in experiment [1] and 52 nM in experiment [2]. For the same compound, the change in vivo at 0.2 mg/kg/day with plasma cholesterol (setting [3]) is -19%.

Turning to `CC(C)c1cc(Oc2c(Cl)cc(NCP(=O)(O)O)cc2Cl)ccc1O` [Compound 22, [3,5-dichloro-4-(4′-hydroxy-3′-iso-propylphenoxy)phenylamino]methylphosphonic acid], the Ki in experiment [1] (SPA data) amounted to 186 nM; in experiment [2] (SPA data), 31 nM. Besides, the change in vivo at 0.2 mg/kg/day was -44% with plasma cholesterol (setting [3]) and -16.5% in the experiment with plasma cholesterol (setting [4]).

With `CC(C)c1cc(Oc2c(Br)cc(NCP(=O)(O)O)cc2Br)ccc1O` [Compound 22-1, [3,5-dibromo-4-(4′-hydroxy-3′-iso-propylphenoxy)phenylamino]methylphosphonic acid], the Ki in experiment [2] came out at 1.5 nM. In addition, in the experiment on plasma cholesterol (setting [4]), the change in vivo at 0.2 mg/kg/day is -19.9%.

For `Cc1cc(CCP(=O)(O)O)cc(C)c1Cc1ccc(O)c(C(C)C)c1` [Compound 24-1, 2-[3,5-dimethyl-4-(4′-hydroxy-3′-iso-propylbenzyl)phenyl]ethylphosphonic acid], the Ki in experiment [2] was determined as 31 nM. Moreover, the change in vivo at 0.2 mg/kg/day with plasma cholesterol (setting [3]) was -35.4%.

In the case of `Cc1cc(/C=C/P(=O)(O)O)cc(C)c1Cc1ccc(O)c(C(C)C)c1` [Compound 24-2, trans-2-[3,5-dimethyl-4-(4′-hydroxy-3′-iso-propylbenzyl)phenyl]vinylphosphonic acid], the inhibition constant (Ki) is more than 2000 nM in experiment [1] (SPA data) and 24 nM in experiment [2] (SPA data). Moreover, the change in vivo at 0.2 mg/kg/day with plasma cholesterol (setting [3]) is -20.5%.

In the case of `CCC(C)c1cc(Cc2c(C)cc(CCP(=O)(O)O)cc2C)ccc1O` (stereo not drawn) [Compound 24-3, 2-[4-(3′-sec-butyl-4′-hydroxy-benzyl)-3,5-dimethyl-phenyl]-ethylphosphonic acid], the Ki in experiment [1] (SPA data) turned out to be 113 nM; in experiment [2] (SPA data), 2.87 nM. The change in vivo at 0.2 mg/kg/day with plasma cholesterol (setting [3]) was -48.6%.

For `Cc1cc(OCP(=O)(O)O)cc(C)c1Cc1ccc(F)c(C(C)C)c1` [Compound 27, [3,5-dimethyl-4-(4′-fluoro-3′-iso-propylbenzyl)phenoxy]methylphosphonic acid], the Ki in experiment [1] (SPA data) and in experiment [2] (SPA data) was more than 2000 nM throughout. In addition, the change in vivo at 0.2 mg/kg/day in the experiment with plasma cholesterol (setting [3]) was -20.8%.

In the case of `Cc1cc(/C=C/P(=O)(O)O)cc(C)c1Oc1ccc(O)c(C(C)C)c1` [Compound 28, trans-2-[3,5-dimethyl-4-(4′-hydroxy-3′-iso-propylphenoxy)phenyl]vinylphosphonic acid], the Ki was determined as 375 nM in experiment [1] (SPA data) and 14 nM in experiment [2] (SPA data). Besides, the change in vivo at 0.2 mg/kg/day with plasma cholesterol (setting [3]) is -20.5%.

For `Cc1cc(CCCP(=O)(O)O)cc(C)c1Oc1ccc(O)c(C(C)C)c1` [Compound 29, 3-[3,5-dimethyl-4-(4′-hydroxy-3′-iso-propylphenoxy)phenyl]propylphosphonic acid], the values for the Ki in experiment [1] (SPA data) and in experiment [2] (SPA data) were 661 nM and 47 nM, respectively. The change in vivo at 0.2 mg/kg/day in the experiment with plasma cholesterol (setting [3]) was -21.9%.
